What was measured:
[1] = tested on: Aβ1-40; test: Measurement of Aβ1-40 in culture medium of 7W WT APP751 CHO cells by ELISA; assay type: cell-based, Chinese hamster; settings: for activity at 5 µM: Cricetulus griseus, Table 1, 5 μM test compound, CHO cells stably transfected with human APP751, culture medium, ELISA, control DMSO, 0 = no detectable amount; for Aβ1-40 (% of control): CHO cells that overexpress APP751, zero = below the detection limit of the assay
[2] = tested on: Aβ1-42; test: Measurement of Aβ1-42 in culture medium of 7W WT APP751 CHO cells by ELISA; assay type: cell-based, Chinese hamster; settings: for activity at 5 µM: Cricetulus griseus, Table 1, 5 μM test compound, CHO cells stably transfected with human APP751, culture medium, ELISA, control DMSO, 0 = no detectable amount, read-out: Aβ1-42 (% of control); for Aβ1-42 (% of control): CHO cells that overexpress APP751, zero = below the detection limit of the assay
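Note: 5 µM test compound but RI-coded compounds at 10 µM for 24 hours.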

CCCOc1ccc(C2C(C(=O)OCc3ccc(OC)cc3)=C(C)NC3=C2C(=O)CC(C)(C)C3)cc1OC (centres unmarked) [ST016979, (4-methoxyphenyl)methyl 4-(3-methoxy-4-propoxyphenyl)-2,7,7-trimethyl-5-oxo-1,4,6,7,8-pentahydroquinoline-3-carboxylate]
activity at 5 µM [1]: 53.7%
activity at 5 µM [2]: 90.1%

CCOC(=O)C1=C(C)NC2=C(C(=O)CCC2)C1c1ccc(OCc2ccc(C)cc2)c(OC)c1 (centres unmarked) [ST028606, ethyl 4-{3-methoxy-4-[(4-methylphenyl)methoxy]phenyl}-2-methyl-5-oxo-1,4,6,7,8-pentahydroquinoline-3-carboxylate]
activity at 5 µM [1]: 24.2%
activity at 5 µM [2]: 52%

COc1cc(OC)c(C2C(C(=O)OC3CCCC3)=C(C)NC3=C2C(=O)CC(c2cccs2)C3)cc1OC (centres unmarked) [ST051557, cyclopentyl 2-methyl-5-oxo-7-(2-thienyl)-4-(2,4,5-trimethoxyphenyl)-1,4,6,7,8-pentahydroquinoline-3-carboxylate]
activity at 5 µM [1]: 57.3%
activity at 5 µM [2]: 93.1%

CCOc1ccc(NC(=O)CSC2=C(C#N)C(c3cccs3)C(C(=O)Nc3ccccc3)=C(C)N2)cc1 (centres unmarked) [RI_9]
Aβ1-40 (% of control) [1]: 56.3 % of control
Aβ1-42 (% of control) [2]: 27.6 % of control

COC(=O)C1=C(C)NC2=C(C(=O)CC(c3ccc(Cl)cc3)C2)C1c1ccc(C)cc1 (centres unmarked) [ST015214, methyl 7-(4-chlorophenyl)-2-methyl-4-(4-methylphenyl)-5-oxo-1,4,6,7,8-pentahydroquinoline-3-carboxylate]
activity at 5 µM [1]: 60.7%
activity at 5 µM [2]: 66.7%

CC1=C(C(=O)OCCc2ccccc2)C(c2cccc(Br)c2)C2=C(CCCC2=O)N1 (centres unmarked) [ST052221, 2-phenylethyl 4-(3-bromophenyl)-2-methyl-5-oxo-1,4,6,7,8-pentahydroquinoline-3-carboxylate]
activity at 5 µM [1]: 62.4%
activity at 5 µM [2]: 46.1%

COc1cccc(C2C(C(=O)OC(C)C)=C(C)NC3=C2C(=O)CC(c2ccc(Cl)cc2)C3)c1OC (centres unmarked) [ST017324, methylethyl 4-(2,3-dimethoxyphenyl)-7-(4-chlorophenyl)-2-methyl-5-oxo-1,4,6,7,8-pentahydroquinoline-3-carboxylate]
activity at 5 µM [1]: 30.2%
activity at 5 µM [2]: 99.2%

CCOC(=O)C1=C(C)NC2=C(C(=O)CC(C)(C)C2)C1c1ccc(Cl)cc1Cl (centres unmarked) [ST020008, ethyl 4-(2,4-dichlorophenyl)-2,7,7-trimethyl-5-oxo-1,4,6,7,8-pentahydroquinoline-3-carboxylate]
activity at 5 µM [1]: 61.7%
activity at 5 µM [2]: 95.7%

CCc1ccc(C2C(C(=O)OCc3ccccc3)=C(C)NC3=C2C(=O)CC(c2ccccc2)C3)cc1 (centres unmarked) [ST013390, phenylmethyl 4-(4-ethylphenyl)-2-methyl-5-oxo-7-phenyl-1,4,6,7,8-pentahydroquinoline-3-carboxylate]
activity at 5 µM [1]: 23.4%
activity at 5 µM [2]: 98.3%

CCCOc1ccccc1C1C(C(=O)OCC(C)C)=C(C)NC2=C1C(=O)CC(c1ccc(Cl)cc1)C2 (centres unmarked) [ST017026, 2-methylpropyl 7-(4-chlorophenyl)-2-methyl-5-oxo-4-(2-propoxyphenyl)-1,4,6,7,8-pentahydroquinoline-3-carboxylate]
activity at 5 µM [1]: 40.6%
activity at 5 µM [2]: 80.6%

CCc1cccc(NC(=O)CSC2=C(C#N)C(c3ccsc3)C(C(=O)Nc3ccccc3)=C(C)N2)c1 (centres unmarked) [RI_44]
Aβ1-40 (% of control) [1]: 93.1 % of control
Aβ1-42 (% of control) [2]: 60.1 % of control

CCc1cccc(NC(=O)CSC2=C(C#N)C(c3csc4ccccc34)C(C(=O)Nc3ccccc3)=C(C)N2)c1 (centres unmarked) [RI_92]
Aβ1-40 (% of control) [1]: 60.7 % of control
Aβ1-42 (% of control) [2]: 47.3 % of control

COC(=O)C1=C(N)n2c(s/c(=C/c3cccnc3)c2=O)=C(C(=O)OC)C1c1cccnc1 (centres unmarked) [ST011768, methyl 5-amino-6-(methoxycarbonyl)-3-oxo-7-(3-pyridyl)-2-(3-pyridylmethylene)-4,7-dihydro-1,3-thiazolidino[3,2-a]pyridine-8-carboxylate]
Aβ1-40 (% of control) [1]: 42.71 % of control
Aβ1-42 (% of control) [2]: 97.83 % of control

COC(=O)C1=C(C)NC2=C(C(=O)CCC2)C1c1cccc(OC)c1OC (centres unmarked) [ST013140, methyl 4-(2,3-dimethoxyphenyl)-2-methyl-5-oxo-1,4,6,7,8-pentahydroquinoline-3-carboxylate]
activity at 5 µM [1]: 96%
activity at 5 µM [2]: 51.1%

CC1=C(C(=O)OCc2ccccc2)C(c2coc3ccc(Cl)cc3c2=O)C2=C(CCCC2=O)N1 (centres unmarked) [ST052468, phenylmethyl 4-(6-chloro-4-oxochromen-3-yl)-2-methyl-5-oxo-1,4,6,7,8-pentahydroquinoline-3-carboxylate]
activity at 5 µM [1]: 43.9%
activity at 5 µM [2]: 31.9%

CC1=C(C(=O)Nc2ccccc2)C(c2cccs2)C(C#N)=C(SCC(=O)Nc2ccc(Cl)cc2)N1 (centres unmarked) [RI_74]
Aβ1-40 (% of control) [1]: 31.4 % of control
Aβ1-42 (% of control) [2]: 41.6 % of control

COC(=O)C1=CN(C2CC2)C=C(C(=O)OC)C1c1ccc(Cl)cc1 [ST038738, methyl 4-(4-chlorophenyl)-1-cyclopropyl-5-(methoxycarbonyl)-1,4-dihydropyridine-3-carboxylate]
Aβ1-40 (% of control) [1]: 94.49 % of control
Aβ1-42 (% of control) [2]: 52.59 % of control

CCOCCOC(=O)C1=C(C)NC2=C(C(=O)CC(c3ccccc3)C2)C1c1ccccc1F (centres unmarked) [ST017312, 2-ethoxyethyl 4-(2-fluorophenyl)-2-methyl-5-oxo-7-phenyl-1,4,6,7,8-pentahydroquinoline-3-carboxylate]
activity at 5 µM [1]: 15.3%
activity at 5 µM [2]: 71.2%

C=CCOC(=O)C1=C(C)NC2=C(C(=O)CCC2)C1c1ccc(OCCC)c(OC)c1 (centres unmarked) [ST013183, prop-2-enyl 4-(3-methoxy-4-propoxyphenyl)-2-methyl-5-oxo-1,4,6,7,8-pentahydroquinoline-3-carboxylate]
activity at 5 µM [1]: 78.7%
activity at 5 µM [2]: 66.3%

CSC1=C(C#N)C(c2ccccc2)C(C(=O)Nc2ccc(Cl)cc2)=C(C)N1 (centres unmarked) [RI_5]
Aβ1-40 (% of control) [1]: 81.4 % of control
Aβ1-42 (% of control) [2]: 82.2 % of control

CCCOc1ccccc1C1C(C(=O)OCCc2ccccc2)=C(C)NC2=C1C(=O)CC(C)(C)C2 (centres unmarked) [ST015048, 2-phenylethyl 2,7,7-trimethyl-5-oxo-4-(2-propoxyphenyl)-1,4,6,7,8-pentahydroquinoline-3-carboxylate]
activity at 5 µM [1]: 37.9%
activity at 5 µM [2]: 88.7%

CC1(C)CC(=O)C2=C(C1)N(c1cc(C(F)(F)F)ccc1Cl)C(N)=C(C#N)C2c1ccc(Br)s1 (centres unmarked) [ST046868, 2-amino-4-(5-bromo(2-thienyl))-1-[2-chloro-5-(trifluoromethyl)phenyl]-7,7-dimethyl-5-oxo-1,4,6,7,8-pentahydroquinoline-3-carbonitrile]
activity at 5 µM [1]: 29.8%
activity at 5 µM [2]: 84%

COC(=O)C1=C(C)NC(C)=C(C(=O)OC)C1c1ccc(Br)cc1 [ST208633, methyl 4-(4-bromophenyl)-5-(methoxycarbonyl)-2,6-dimethyl-1,4-dihydropyridine-3-carboxylate]
Aβ1-40 (% of control) [1]: 9.12 % of control
Aβ1-42 (% of control) [2]: 0 % of control

CCc1cccc(NC(=O)CSC2=C(C#N)C(c3sccc3Br)C(C(=O)Nc3ccccc3)=C(C)N2)c1 (centres unmarked) [RI_82]
Aβ1-40 (% of control) [1]: 67.5 % of control
Aβ1-42 (% of control) [2]: 67.9 % of control

COC(=O)C1=C(C)NC2=C(C(=O)CCC2)C1c1cc(OC)ccc1OC (centres unmarked) [ST013073, methyl 4-(2,5-dimethoxyphenyl)-2-methyl-5-oxo-1,4,6,7,8-pentahydroquinoline-3-carboxylate]
activity at 5 µM [1]: 49.5%
activity at 5 µM [2]: 93.2%

From patent US20100119599A1 (ARCHER PHARMACEUTICALS, INC., priority 2006, published 2010)
